Usually Kd stands for the concentration at which binding is half-saturated.

Consider one compound from article PMC6934700, “Structure-Guided Design of a Fluorescent Probe for the Visualization of FtsZ in Clinically Important Gram-Positive and Gram-Negative Bacterial Pathogens” (Scientific Reports, 2019).

The target of one test is T1, A. baumannii (AbFtsZ) (Acinetobacter baumannii, UniProt V5V8B6).
T1 sequence (V5V8B6 1-391): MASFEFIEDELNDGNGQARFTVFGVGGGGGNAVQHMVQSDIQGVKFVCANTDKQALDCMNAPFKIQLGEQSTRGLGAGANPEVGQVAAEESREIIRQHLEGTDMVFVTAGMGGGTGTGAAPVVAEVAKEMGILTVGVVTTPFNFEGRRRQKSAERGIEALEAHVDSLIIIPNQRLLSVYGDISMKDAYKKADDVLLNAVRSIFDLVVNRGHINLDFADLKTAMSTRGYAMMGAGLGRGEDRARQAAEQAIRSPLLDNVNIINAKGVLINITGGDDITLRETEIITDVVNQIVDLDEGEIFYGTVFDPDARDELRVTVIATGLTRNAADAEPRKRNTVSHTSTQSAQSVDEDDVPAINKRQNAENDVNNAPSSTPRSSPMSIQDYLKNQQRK
As to the kind of experiment: Fluorescence anisotropy binding of BOFP to AbFtsZ. The conditions noted are these: for Kd: 50 mM Tris-HCl (pH 7.6), 50 mM KCl, 0.1 µM BOFP. The method, then: (§1) Fluorescence anisotropy experiments were performed using an AVIV model ATF105 spectrofluorometer at 15, 25, or 37 °C. In these experiments, bandwidths were set to 4 nm in both the excitation and emission directions, with the excitation and emission wavelengths being set at 488 nm and 510 nm, respectively. BOFP (0.1 µM) was titrated with increasing concentrations (ranging from 0 to 12 µM) of FtsZ in 120 µL of buffer containing 50 mM Tris-HCl (pH 7.6) and 50 mM KCl. After each protein addition, the samples were equilibrated for 3 minutes, whereupon the fluorescence anisotropy was measured.
(§2) In this equation, r0 is the anisotropy of the protein-free compound, r∞ is the anisotropy of the compound in the presence of an infinite concentration of FtsZ, [C]tot is the total concentration of the compound, and [P]tot is the total concentration of protein with each addition. These analyses yielded the equilibrium dissociation constant (Kd) for each binding reaction.
(§3) The binding free energy (ΔG) at temperature T was derived from the corresponding Kd value determined at T using the following relationship:2 ΔG=−RTln(1/Kd)
(§4) The binding enthalpy (ΔH) and entropy (ΔS) were derived from linear fits of the ln(1/Kd) vs. 1/T plots shown in Figs. 3f and 5e using the following relationship:3 ln(1/Kd)=−ΔH/R(1/T)+ΔS/R

A further test deals with K. pneumoniae (KpFtsZ) (Klebsiella pneumoniae, UniProt A0A0H3GRR0). The test can be described thus: Fluorescence anisotropy binding of BOFP to KpFtsZ. The conditions noted are these: for Kd: 50 mM Tris-HCl (pH 7.6), 50 mM KCl, 0.1 µM BOFP. On the procedure:
as §1, §2, §3, §4
In comparative control experiments, the anisotropy of 0.1 µM BODIPY FL-COOH or BOFP alone or in the presence of SaFtsZ (10 µM), SpyFtsZ (10 µM), KpFtsZ (2 µM), or PaFtsZ (2 µM) was measured at 37 °C in the same buffer described above.

A further test has as its target E. faecalis (EfsFtsZ) (Enterococcus faecalis, UniProt O08439). As to the kind of experiment: Fluorescence anisotropy binding of BOFP to EfsFtsZ. The conditions noted are these: for Kd: 50 mM Tris-HCl (pH 7.6), 50 mM KCl, 0.1 µM BOFP. The method, then:
as §1, §2, §3, §4
In general terms: In fluorescence polarisation assays a small probe gives low polarisation when free and higher when bound to something large.

Another test has as its system MRSA LAC FtsZ-mCherry. The test can be described thus: Colocalization of BOFP labeling with induced FtsZ-mCherry fusion protein. It is filed as cell-based, Staphylococcus aureus. The conditions noted are these: 1 µg/mL BOFP for 5 minutes; vehicle-treated and 1-treated cells. The method, then: All differential interference contrast (DIC) and fluorescence microscopy experiments were conducted using an Olympus BX50 microscope equipped with an X-cite Exacte 200 W mercury lamp, a 100× Olympus UPLSAPO oil immersion objective (1.40 aperture), as well as both Chroma ET-EGFP (FITC/Cy2) and ET mCherry, Texas Red filters. Images were captured using a QImaging Retiga R3 charge-coupled device (CCD) camera and the Ocular-Version 2.0 software package (QImaging).
To visualize the impact of treating MRSA LAC FtsZ-mCherry with 1, cells were grown to log-phase in CAMH broth and diluted to an OD600 of 0.1. […] Following this treatment, 1–5 mL of each culture was centrifuged at 15,000 × g for 1 minute and washed twice with 1 mL of PBS. The resulting cell pellets were further processed and labeled with BOFP as described above for the Gram-positive bacterial strains.

The target of a further test is T2, S. pneumoniae (SpnFtsZ) (Streptococcus pneumoniae, UniProt A0A0H2ZNE0).
T2 sequence (A0A0H2ZNE0 1-419): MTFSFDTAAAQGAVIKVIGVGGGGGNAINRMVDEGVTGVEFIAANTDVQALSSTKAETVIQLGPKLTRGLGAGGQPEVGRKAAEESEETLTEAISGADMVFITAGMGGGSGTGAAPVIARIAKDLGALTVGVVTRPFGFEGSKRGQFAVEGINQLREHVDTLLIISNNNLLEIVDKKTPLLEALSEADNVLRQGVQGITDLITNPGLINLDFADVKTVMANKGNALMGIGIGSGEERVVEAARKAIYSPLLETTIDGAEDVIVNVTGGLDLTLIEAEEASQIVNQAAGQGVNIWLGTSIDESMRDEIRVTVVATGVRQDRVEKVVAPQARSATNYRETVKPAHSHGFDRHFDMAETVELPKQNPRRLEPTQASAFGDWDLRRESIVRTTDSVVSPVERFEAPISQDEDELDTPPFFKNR
The test can be described thus: Fluorescence anisotropy binding of BOFP to SpnFtsZ. The conditions noted are these: for Kd: 50 mM Tris-HCl (pH 7.6), 50 mM KCl, 0.1 µM BOFP. The method, then:
as §1, §2, §3, §4

[1] abbreviates: from linear fit of ln(1/Kd) vs. 1/T.
The mark [2] stands for this setting: calculated at T = 310 K (37 °C) from Kd.

Like-named read-outs stand apart in the source and are kept apart here.

Sequence of E. faecalis (EfsFtsZ) (O08439 whole entry): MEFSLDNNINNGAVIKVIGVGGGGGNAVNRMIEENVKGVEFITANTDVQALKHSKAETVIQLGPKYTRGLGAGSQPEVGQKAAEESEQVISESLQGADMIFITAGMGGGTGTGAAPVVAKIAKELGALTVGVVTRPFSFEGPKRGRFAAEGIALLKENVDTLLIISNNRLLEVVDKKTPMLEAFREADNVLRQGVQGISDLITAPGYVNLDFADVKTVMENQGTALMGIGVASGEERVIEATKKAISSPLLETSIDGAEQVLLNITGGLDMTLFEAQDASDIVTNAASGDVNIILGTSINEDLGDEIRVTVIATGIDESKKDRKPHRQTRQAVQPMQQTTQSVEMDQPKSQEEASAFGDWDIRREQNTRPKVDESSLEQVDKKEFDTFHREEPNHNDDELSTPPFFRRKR
Sequence of K. pneumoniae (KpFtsZ) (A0A0H3GRR0 entry or part of it): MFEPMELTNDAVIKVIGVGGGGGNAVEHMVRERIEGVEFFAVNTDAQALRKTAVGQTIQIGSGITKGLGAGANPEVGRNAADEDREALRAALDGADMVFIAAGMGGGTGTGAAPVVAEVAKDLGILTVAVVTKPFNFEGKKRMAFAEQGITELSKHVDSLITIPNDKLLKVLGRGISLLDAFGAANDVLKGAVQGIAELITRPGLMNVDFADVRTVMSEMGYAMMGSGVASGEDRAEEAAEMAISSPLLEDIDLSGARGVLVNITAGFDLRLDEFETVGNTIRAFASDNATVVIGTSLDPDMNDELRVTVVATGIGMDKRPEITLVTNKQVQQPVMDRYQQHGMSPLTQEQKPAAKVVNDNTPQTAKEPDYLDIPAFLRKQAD

In the case of `CC1=CC(C)=[N+]2C1=Cc1ccc(CCC(=O)OCC(Oc3ccc(F)c(C(N)=O)c3F)c3nc(-c4ccc(C(F)(F)F)cc4)c(Br)o3)n1[B-]2(F)F` (stereo not drawn) [BOFP], the Kd on A. baumannii (AbFtsZ) (15 °C, read-out: Kd - 15 °C) was 400 ± 30 nM; on A. baumannii (AbFtsZ) (25 °C, read-out: Kd - 25 °C), 550 ± 20 nM; at A. baumannii (AbFtsZ) (37 °C, read-out: Kd - 37 °C), 680 ± 40 nM; on K. pneumoniae (KpFtsZ) (15 °C, read-out: Kd - 15 °C), 420 ± 50 nM; on K. pneumoniae (KpFtsZ) (25 °C, read-out: Kd - 25 °C), 580 ± 40 nM; at K. pneumoniae (KpFtsZ) (37 °C, read-out: Kd - 37 °C) it was 820 ± 40 nM. Moreover, the Kd at E. faecalis (EfsFtsZ) (Kd - 15 °C, 15 °C) worked out at 1720 ± 60 nM; on E. faecalis (EfsFtsZ) (Kd - 25 °C, 25 °C), 3050 ± 250 nM; on E. faecalis (EfsFtsZ) (Kd - 37 °C, 37 °C) it was 4620 ± 120 nM; on S. pneumoniae (SpnFtsZ) (15 °C, read-out: Kd - 15 °C), 3020 ± 300 nM; at S. pneumoniae (SpnFtsZ) (25 °C, read-out: Kd - 25 °C) it was 3490 ± 250 nM; at S. pneumoniae (SpnFtsZ) (37 °C, read-out: Kd - 37 °C), 3810 ± 690 nM. Moreover, the ΔH was -4.2 ± 0.6 kcal/mol at A. baumannii (AbFtsZ) (setting [1]), -5.4 ± 0.1 kcal/mol on K. pneumoniae (KpFtsZ) (setting [1]), -7.9 ± 1.0 kcal/mol at E. faecalis (EfsFtsZ) (setting [1]) and -1.9 ± 0.3 kcal/mol on S. pneumoniae (SpnFtsZ) (setting [1]). The ΔG is -8.6 ± 0.1 kcal/mol on K. pneumoniae (KpFtsZ) (setting [2]), -7.6 ± 0.1 kcal/mol on E. faecalis (EfsFtsZ) (setting [2]) and -7.7 ± 0.1 kcal/mol at S. pneumoniae (SpnFtsZ) (setting [2]). Also, the ΔS at E. faecalis (EfsFtsZ) (setting [1]) is given as −1.2 ± 3.3 cal/mol•K. In the test with MRSA LAC FtsZ-mCherry, the “Colocalization of BOFP green fluorescence with FtsZ-mCherry red fluorescence” value is listed as “colocalizes with the red fluorescence”.
